Here are results for 19 compounds from US8735414B2 (priority 2009, dated 2014).

In series [1] the test system is bicistronic HCV replicon (replicon RNA, GenBank Accession No. AJ242654). The series is described as follows: HCV Replicon Assay. Format: cell-based. As to conditions: Hepatitis C virus, 72 h, read-out: Replicon IC50.

Each structure is given as a SMILES string.

Turning to `C[C@@H](NS(=O)(=O)c1ccc(-c2c(C#N)c3cc(F)c(OC(F)F)cc3n2C2CCC2)nc1)C(F)(F)F` [compound 648, 6-[3-cyano-1-cyclobutyl-6-(difluoromethoxy)-5-fluoro-1H-indol-2-yl]-N-[(2R)-1,1,1-trifluoropropan-2-yl]pyridine-3-sulfonamide], the melting point (commonly the temperature, or range, at which the solid turns liquid) was in the range of 173 to 175 °C. In addition, in series [1], the half-inhibitory concentration (IC50) (in general, the midpoint of a concentration-inhibition curve) is less than 500 nM.
The compound `CC(C)n1c(-c2ccc(S(=O)(=O)NC(CF)CF)cn2)c(C#N)c2ccc(OC(F)F)cc21` [compound 36, 6-[3-cyano-6-(difluoromethoxy)-1-(propan-2-yl)-1H-indol-2-yl]-N-(1,3-difluoropropan-2-yl)pyridine-3-sulfonamide] registered a melting point of 142 to 145 °C. The concentration for half-maximal inhibition (IC50) in series [1] is less than 500 nM.
Taken in the same sequence, the figures for `CCc1ccc2c(C#N)c(-c3ccc(S(=O)(=O)NC(CF)CF)cn3)n(C3CCC3)c2c1` [compound 48, 6-(3-cyano-1-cyclobutyl-6-ethyl-1H-indol-2-yl)-N-(1,3-difluoropropan-2-yl)pyridine-3-sulfonamide] were 201 to 202 °C and less than 500 nM.
Taken in the same sequence, the figures for `CCc1cc2c(cc1F)c(C(N)=O)c(-c1ccc(S(=O)(=O)NC3(C(F)(F)F)CC3)cn1)n2-c1ncccn1` [compound 979, 6-ethyl-5-fluoro-1-(pyrimidin-2-yl)-2-(5-{[1-(trifluoromethyl)cyclopropyl]sulfamoyl}pyridin-2-yl)-1H-indole-3-carboxamide] were 240 to 247 °C and 2000 to 5000 nM.
The compound `C[C@@H](NS(=O)(=O)c1ccc(-c2c(C#N)c3cc(Cl)ccc3n2-c2ccccn2)nc1)C(F)(F)F` [compound 491, 6-[5-chloro-3-cyano-1-(pyridin-2-yl)-1H-indol-2-yl]-N-[(2R)-1,1,1-trifluoropropan-2-yl]pyridine-3-sulfonamide] yielded a melting point of 150 to 154 °C. Besides, the IC50 in series [1] lay within 500 to 2000 nM.
Taken in the same sequence, the figures for `Cc1cc2c(cc1F)c(C#N)c(-c1ccc(S(=O)(=O)N[C@@H](C)C(F)(F)F)cn1)n2-c1occc1C#N` [compound 1072, 6-[3-cyano-1-(3-cyanofuran-2-yl)-5-fluoro-6-methyl-1H-indol-2-yl]-N-[(2S)-1,1,1-trifluoropropan-2-yl]pyridine-3-sulfonamide] were 238 to 243.6 °C and 500 to 2000 nM.
Taken in the same sequence, the figures for `CCc1cc2c(cc1F)c(C#N)c(-c1ccc(S(=O)(=O)N[C@@H](C)C(F)(F)F)cn1)n2-c1ccc(C(F)(F)F)cc1` [compound 1006, 6-{3-cyano-6-ethyl-5-fluoro-1-[4-(trifluoromethyl)phenyl]-1H-indol-2-yl}-N-[(2S)-1,1,1-trifluoropropan-2-yl]pyridine-3-sulfonamide] were 276 to 282 °C and 500 to 2000 nM.
For the compound `Cc1ccc2c(C#N)c(-c3ccc(S(=O)(=O)NC(CF)CF)cn3)n(C(C)C)c2c1` [compound 80, 6-[3-cyano-6-methyl-1-(propan-2-yl)-1H-indol-2-yl]-N-(1,3-difluoropropan-2-yl)pyridine-3-sulfonamide], the melting point lay in the range of 188 to 195 °C. For the same compound, the IC50 in series [1] was less than 500 nM.
Taken in the same sequence, the figures for `CC[C@H](NS(=O)(=O)c1ccc(-c2c(C#N)c3cc(F)c(OC(F)F)cc3n2C2CCC2)nc1)C(F)(F)F` [compound 738, 6-[3-cyano-1-cyclobutyl-6-(difluoromethoxy)-5-fluoro-1H-indol-2-yl]-N-[(2S)-1,1,1-trifluorobutan-2-yl]pyridine-3-sulfonamide] were 166 to 173 °C and less than 500 nM.
For `Cc1c(F)cc2c(C#N)c(-c3ccc(S(=O)(=O)N[C@H](C)C(F)(F)F)cn3)n(C3CCCC3)c2c1F` [compound 653, 6-(3-cyano-1-cyclopentyl-5,7-difluoro-6-methyl-1H-indol-2-yl)-N-[(2R)-1,1,1-trifluoropropan-2-yl]pyridine-3-sulfonamide] the same measures were 212 to 217 °C and less than 500 nM.
Taken in the same sequence, the figures for `C[C@H](NS(=O)(=O)c1cnc(-c2c(C#N)c3cc(F)ccc3n2C2CCCCC2)nc1)C(F)(F)F` [compound 393, 2-(3-cyano-1-cyclohexyl-5-fluoro-1H-indol-2-yl)-N-[(2S)-1,1,1-trifluoropropan-2-yl]pyrimidine-5-sulfonamide] were 236 to 238 °C and less than 500 nM.
As for `C[C@H](NS(=O)(=O)c1ccc(-c2c(C(N)=O)c3cc(F)c(C4CC4)cc3n2C2CCC2)nc1)C(F)(F)F` [compound 731, 1-cyclobutyl-6-cyclopropyl-5-fluoro-2-(5-{[(2S)-1,1,1-trifluoropropan-2-yl]sulfamoyl}pyridin-2-yl)-1H-indole-3-carboxamide], the melting point lay within 225 to 227 °C. Besides, the half-maximal inhibitory concentration (IC50) in series [1] was less than 500 nM.
For `Cc1ccc2c(C#N)c(-c3ccc(S(=O)(=O)NC(C)(C)C(F)(F)F)cn3)n(-c3ccccc3)c2c1` [compound 585, 6-(3-cyano-6-methyl-1-phenyl-1H-indol-2-yl)-N-(1,1,1-trifluoro-2-methylpropan-2-yl)pyridine-3-sulfonamide] the same measures were 210 to 212 °C and less than 500 nM.
`CC(C)NS(=O)(=O)c1ccc(-c2c(C#N)c3ccc(OC(F)F)cc3n2C2CC2)cn1` [compound 39, 5-[3-cyano-1-cyclopropyl-6-(difluoromethoxy)-1H-indol-2-yl]-N-(propan-2-yl)pyridine-2-sulfonamide] came in with a melting point of 209 to 210 °C. In addition, the IC50 in series [1] was in the range of 2000 to 5000 nM.
For `CC(C)n1c(-c2ccc(S(=O)(=O)NC(CF)CF)cn2)c(C#N)c2ccc(C3CC3)cc21` [compound 83, 6-[3-cyano-6-cyclopropyl-1-(propan-2-yl)-1H-indol-2-yl]-N-(1,3-difluoropropan-2-yl)pyridine-3-sulfonamide] the same measures were 184 to 190 °C and less than 500 nM.
`COc1ccc2c(C#N)c(-c3ccc(S(=O)(=O)N[C@@H](C)C4CC4)cn3)n(C3CCCC3)c2c1` [compound 432, 6-(3-cyano-1-cyclopentyl-6-methoxy-1H-indol-2-yl)-N-[(1S)-1-cyclopropylethyl]pyridine-3-sulfonamide] returned a melting point of 199 to 209 °C. In addition, the IC50 in series [1] was less than 500 nM.
Taken in the same sequence, the figures for `Cc1cc2c(cc1F)c(C(=O)O)c(-c1ccc(S(=O)(=O)NC(C)(C)C)cn1)n2C1CCCC1` [compound 766, 2-[5-(tert-butylsulfamoyl)pyridin-2-yl]-1-cyclopentyl-5-fluoro-6-methyl-1H-indole-3-carboxylic acid] were 238 to 240 °C and less than 500 nM.
`CCc1cc2c(cc1F)c(C#N)c(-c1ccc(S(=O)(=O)N[C@@H](C)C(F)(F)F)cn1)n2-c1cccc(C(F)(F)F)c1` [compound 1011, 6-{3-cyano-6-ethyl-5-fluoro-1-[3-(trifluoromethyl)phenyl]-1H-indol-2-yl}-N-[(2S)-1,1,1-trifluoropropan-2-yl]pyridine-3-sulfonamide] returned a melting point of 240 to 245 °C. Besides, the concentration for half-maximal inhibition (IC50) in series [1] lay in the range of 500 to 2000 nM.
For `C[C@H](NS(=O)(=O)c1cnc(-c2c(C#N)c3ccc(F)cc3n2C2CCC2)nc1)C(F)(F)F` [compound 494, 2-(3-cyano-1-cyclobutyl-6-fluoro-1H-indol-2-yl)-N-[(2S)-1,1,1-trifluoropropan-2-yl]pyrimidine-5-sulfonamide] the same measures were 223 to 225 °C and 2000 to 5000 nM.
